Results reported in patent US11298367B2, “Prodrugs of substituted triazole derivatives and uses thereof” (Bayer Aktiengesellschaft, priority 2017, dated 2022).
Values after ≈ are worked out from the molar mass of the structure shown. Like-named read-outs stand apart in the source and are kept apart here.

Key:
Solubility = format: physicochemical; conditions: 24 h room temperature, max. 500 μg/ml; for solubility at 24 h: thermodynamic from solid
Procedure: For each substance 0.5-0.6 mg are weighed exactly. In each case, sufficient medium is added to the sample in such a way that a concentration of c=500 μg/ml is obtained. This sample solution is shaken for 24 h at room temperature and 1400 rpm.
A further sample weight of 0.5-0.6 mg is required for the DMSO calibration solution. This sample is filled with DMSO to a concentration of c=600 μg/ml. Two calibration solutions are prepared from this stock solution. In a 2 ml HPLC vial, 1000 μl of DMSO are initially introduced and 34.4 μl of the stock solution are pipetted (c=20 µg/ml). […] of this solution (c=20 μg/ml) are placed in a further 2 ml HPLC vial containing 500 μl of DMSO (c=2.5 μg/ml).
After shaking the test solutions, 230 μl of the supernatant are transferred into a centrifuge tube and centrifuged at 42 000 rpm (223 000 g) for 30 min. 180 μl of the supernatant are then taken and each diluted with DMSO (1:5 sample 1; 1:100 sample 2), and transferred to HPLC vials. The two calibration solutions and the dilute sample solutions are analyzed by HPLC. Quantification is performed over the corresponding peak areas.
Distilled water; trifluoroacetic acid (Merck; 1.08262.0100); acetonitrile (HPLC grade); DMSO (Merck; 8.02912.2500).
Fluka buffer, Order No. 33643 (11.76 g citric acid, 2.57 g sodium chloride and 2.72 g sodium hydroxide).
Fluka buffer, Order No. 33646 (3.52 g potassium dihydrogenphosphate, 7.26 g sodium hydrogen phosphate).
Solution of 6.18 g sodium chloride and 3.96 g sodium dihydrogen phosphate in 1 L distilled water, adjust with 1M aqueous sodium hydroxide solution to pH 7.4.
0.6057 g TRIS was dissolved in 95 ml water, adjust to pH 8.5 with aqueous hydrochloric acid, fill with water until 100 ml volume is reached.

human V1a receptor = biological target: T1, human V1a receptor (Homo sapiens, UniProt P37288); assay: Cellular in vitro assay for verification of prodrug conversion into drug (with/without alkaline phosphatase); format: cell-based; conditions: human V1a CHO cells
T1 construct: expressed in transfected cells; host or cells: CHO K1 (Chinese hamster ovary), also stably transfected with a modified aequorin
T1 sequence (P37288 whole entry): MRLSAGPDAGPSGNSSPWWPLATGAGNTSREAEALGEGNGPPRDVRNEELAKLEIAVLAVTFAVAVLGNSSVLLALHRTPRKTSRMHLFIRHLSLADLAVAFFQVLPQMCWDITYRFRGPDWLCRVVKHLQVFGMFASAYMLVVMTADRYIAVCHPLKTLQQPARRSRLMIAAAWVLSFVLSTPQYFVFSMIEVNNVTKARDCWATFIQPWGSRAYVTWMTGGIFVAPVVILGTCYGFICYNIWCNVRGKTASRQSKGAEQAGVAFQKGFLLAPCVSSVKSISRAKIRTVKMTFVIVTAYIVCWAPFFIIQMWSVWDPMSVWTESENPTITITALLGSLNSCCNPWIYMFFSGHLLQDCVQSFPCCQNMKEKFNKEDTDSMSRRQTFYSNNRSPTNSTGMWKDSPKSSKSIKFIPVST
Procedure: B-4. Cellular In Vitro Assay for Verification of Prodrug Conversion into Drug
To verify the conversion of prodrugs into the respective drugs, the prodrugs are incubated with and without alkaline phosphatase. Cleavage of the phosphate moiety by alkaline phosphatase converts the prodrug into the underlying respective drug [Coleman J. E., Annu. Rev. Biophys. Biomol. Struct. 1992, 21, 441-483]. As prodrug and underlying respective drug show different IC50 values, the value of the prodrug after alkaline phosphatase treatment resembles the IC50 of the respective drug. The determination of IC50 values of compounds of the invention at the human V1a receptor is carried out using a recombinant cell line. The cell line originally derives from a hamster's ovary epithelial cell (Chinese Hamster Ovary, CHO K1, ATCC: American Type Culture Collection, Manassas, Va. 20108, USA). The test cell line constitutively expresses the human V1a receptor. Cells are also stably transfected with a modified form of the calcium-sensitive photoprotein aequorin which, after reconstitution with the cofactor coelenterazine, emits light upon increase in free calcium concentration [Rizzuto R, Simpson A W, Brini M, Pozzan T, Nature 358, 325-327 (1992); Illarionov B A, Bondar V S, Illarionova V A, Vysotski E S, Gene 153 (2), 273-274 (1995)]. The resulting vasopressin receptor cell reacts to stimulation of the recombinantly expressed V1a receptor by intracellular release of calcium ions, which can be quantified by the resulting luminescence of photoprotein. The bioluminescence of the cell line is detected using a suitable luminometer [Milligan G, Marshall F, Rees S, Trends in Pharmacological Sciences 17, 235-237 (1996)].
On the day before the assay, the cells are seeded in culture medium (DMEM/F12, 2% FCS, 2 mM glutamine, 10 mM HEPES, 5 μg/ml coelenterazine) in 384-well microtiter plates and kept in a cell incubator (96% humidity, 5% v/v CO2, 37C). On the day of the assay, 100 μl of test compounds at a concentration of 100 μM are incubated for 15 minutes with 500 units alkaline phosphatase at 37° C. in tyrode buffer (20 mM HEPES, 130 mM NaCl, 5 mM KCl, 5 mM NaHCO3, 2 mM MgCl2, pH 7,4). After incubation compounds are immediately diluted and placed for 10 minutes at 37° C. on the before seeded V1a cells. For detection of antagonistic activity of the compounds [Arg^8]-vasopressin at EC50 concentration is added and the resulting light signal is measured immediately in a luminometer.

pH stability = format: physicochemical
Procedure: 0.15 mg of the test compound is dissolved in 0.1 ml dimethylsulfoxide and 0.4 ml acetonitrile. For complete dissolution the HPLC vial with the sample solution is shaken and treated with ultrasonic irradiation. Then 1.0 ml of the respective buffer solution is added and the sample is vortexed. The sample solution is analyzed by HPLC to determine the amount of the test compound at a particular time over a period of 24 h at 37° C. The peak areas in percentage are used for quantification.
pH 4.0: Fluka buffer, Order No. 33643 (11.76 g citric acid, 2.57 g sodium chloride and 2.72 g sodium hydroxide).
pH 7.4: 90 g of sodium chloride, 13.61 g of potassium dihydrogen phosphate and 83.35 g of 1 M sodium hydroxide solution are made up to 1 litre with Millipore water and then diluted 1:10. Adjust with phosphoric acid to pH=7.4.
pH 10: Fluka buffer, Order No. 33649 (4.77 g Borax, 0.73 g sodium hydroxide).
15 μl portions of the sample solution are analysed by HPLC at different times (0 h, 1 h, 2 h, 4 h and 24 h) at 37° C. The peak areas in percentage are used for quantification.
The ratios of the peak area (F) at different times in relation to the peak area at the starting point are shown in Table 8A for representative examples: […]

[1] = Tris buffer pH 8.5, pH 8.5, aqueous buffer, pH = 8.5 Tris buffer
[2] = citrate buffer pH 4, pH 4, aqueous buffer, pH = 4 citrate buffer
[3] = phosphate buffer pH 7, pH 7, aqueous buffer, pH = 7.0 buffer
[4] = pre-incubation 15 min with 500 units alkaline phosphatase at 37° C., read-out: IC50 with AP
[5] = without alkaline phosphatase, read-out: IC50 without AP

Solubility (Solubility; pH = 7.0 buffer) | SMILES | solubility at 24 h (Solubility; [1]) | solubility at 24 h (Solubility; [2]) | solubility at 24 h (Solubility; [3]) | IC50 (human V1a receptor; [4]) | IC50 (human V1a receptor; [5]) | % Test Compound after 4 h [F(t = 4 h) × 100/F(t = 0 h)] (pH stability; buffer pH 4, 37° C.) | % Test Compound after 24 h [F(t = 24 h) × 100/F(t = 0 h)] (pH stability; buffer pH 4, 37° C.) | % Test Compound after 4 h [F(t = 4 h) × 100/F(t = 0 h)] (pH stability; buffer pH 7.4, 37° C.) | % Test Compound after 24 h [F(t = 24 h) × 100/F(t = 0 h)] (pH stability; buffer pH 7.4, 37° C.) | % Test Compound after 4 h [F(t = 4 h) × 100/F(t = 0 h)] (pH stability; buffer pH 10, 37° C.) | % Test Compound after 24 h [F(t = 24 h) × 100/F(t = 0 h)] (pH stability; buffer pH 10, 37° C.)
 | NC(=O)c1nc(Cn2nc(-c3ccc(Cl)cc3)n(C[C@H](OP(=O)(O)O)C(F)(F)F)c2=O)nn1-c1ncccc1C(F)(F)F [Example 1, (2S)-3-[1-({5-Carbamoyl-1-[3-(trifluoromethyl)pyridin-2-yl]-1H-1,2,4-triazol-3-yl}methyl)-3-(4-chlorophenyl)-5-oxo-1,5-dihydro-4H-1,2,4-triazol-4-yl]-1,1,1-trifluoropropan-2-yl Dihydrogen Phosphate] | > 500 µg/mL | > 500 µg/mL | > 500 µg/mL | 1.45 nM | 13.1 nM | 100% | 100% | 99% | 99% | 99% | 98%
not detectable | NC(=O)c1nc(Cn2nc(-c3ccc(Cl)cc3)n(C[C@H](O)C(F)(F)F)c2=O)nn1-c1ncccc1C(F)(F)F [Example 4A, 3-({3-(4-Chlorophenyl)-5-oxo-4-[(2S)-3,3,3-trifluoro-2-hydroxypropyl]-4,5-dihydro-1H-1,2,4-triazol-1-yl}methyl)-1-[3-(trifluoromethyl)pyridin-2-yl]-1H-1,2,4-triazole-5-carboxamide] | 6.7 µg/mL (≈ 11.6 µM) | 8.7 µg/mL (≈ 15.1 µM) |  | 1.35 nM | 1.25 nM |  |  |  |  |  | 
 | NC(=O)c1nc(Cn2nc(-c3ccc(Cl)cc3)n(C[C@H](OP(=O)(O)O)C(F)(F)F)c2=O)nn1-c1ccccc1C(F)(F)F [Example 10, (2S)-3-[1-({5-Carbamoyl-1-[2-(trifluoromethyl)phenyl]-1H-1,2,4-triazol-3-yl}methyl)-3-(4-chlorophenyl)-5-oxo-1,5-dihydro-4H-1,2,4-triazol-4-yl]-1,1,1-trifluoropropan-2-yl Dihydrogen Phosphate] | 479 µg/mL | 454 µg/mL | > 500 µg/mL | 1.3 nM | 11 nM | 100% | 100% | 100% | 100% |  | 
 | NC(=O)c1nc(Cn2nc(-c3ccc(Cl)cc3)n(C[C@H](OP(=O)(O)O)C(F)(F)F)c2=O)nn1-c1ncccc1Cl [Example 17, (2S)-3-[1-{[5-Carbamoyl-1-(3-chloropyridin-2-yl)-1H-1,2,4-triazol-3-yl]methyl}-3-(4-chloro-phenyl)-5-oxo-1,5-dihydro-4H-1,2,4-triazol-4-yl]-1,1,1-trifluoropropan-2-yl Dihydrogen Phosphate] | > 500 µg/mL | > 500 µg/mL | > 500 µg/mL | 1.03 nM | 9.45 nM | 100% | 100% | 100% | 100% |  | 
